Results from patent publication US20250361268A1, “NOVEL ANTI-INFLAMMATORY PEPTIDE AND USE THEREOF” (NOVACELL TECHNOLOGY INC., priority 2022, published 2025).
Peptide text beside a SMILES is read from it.

Columns and labels:
FPR2 = biological target: T1, FPR2 (Homo sapiens, UniProt P25090); test: Change in calcium activity by peptide (Fura-2) in RBL cells overexpressing FPR2; type: cell-based; conditions: calcium activity (Fura-2), graded per Table 3, read-out: EC50 for [Ca^2+] FPR2
T1 construct: expressed in transfected cells; host or cells: RBL cells (RBL-FPR2)
T1 sequence (P25090 1-351): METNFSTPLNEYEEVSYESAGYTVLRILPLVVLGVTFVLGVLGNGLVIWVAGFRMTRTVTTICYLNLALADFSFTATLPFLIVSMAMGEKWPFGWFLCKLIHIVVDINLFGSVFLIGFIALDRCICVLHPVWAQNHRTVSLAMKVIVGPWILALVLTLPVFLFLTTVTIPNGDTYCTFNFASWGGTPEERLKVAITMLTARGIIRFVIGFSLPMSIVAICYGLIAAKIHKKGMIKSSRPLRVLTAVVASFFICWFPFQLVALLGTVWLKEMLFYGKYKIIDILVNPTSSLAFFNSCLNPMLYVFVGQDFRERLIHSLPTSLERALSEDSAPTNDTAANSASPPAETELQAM
In short: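 Rat basophilic leukemia cells overexpressing FPR2 loaded with Fura-2 (37 °C 1 h, then RT 30 min dark); peptides (0.5 mM stocks in water or 50% DMSO) diluted in HBSS + 20 mM HEPES and added on a plate reader, intracellular Ca2+ change recorded.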

RAW264.7 cell line = test: Cytokine inhibition ability: LPS-induced cytokine gene expression in RAW264.7 macrophages; type: cell-based, mouse; conditions: grade of reduction rate of gene expression, peptide 100 nM, LPS 200 ng/mL, 6 hours
Description: The present inventors observed the cytokine inhibition ability of the immunomodulatory peptide candidates prepared according to one example of the present invention. Specifically, to confirm whether the peptides reduce inflammatory responses in cells, changes in cytokine gene expression in cells upon inflammation was measured.
The present inventors used a RAW264.7 cell line, that is, mouse macrophages, and used lipopolysaccharide (LPS; Sigma-Aldrich, #L2630), which is the main component of a gram-negative bacterial cell wall, as a material causing an inflammatory response. A peptide that had been dissolved in water at 100 μM was prepared.
In the present experiment, the cells were cultured in a DMEM (Lonza, #BE12-604F) containing 10% FBS and 1% penicillin-streptomycin under conditions of 37° C. and 5% CO2.
The cells were plated in a 24-well plate (Costar, #3603) at a density of 2.5×10^5 cells/well. After 24 hours, the prepared cells were treated with the peptide at 100 nM. After incubation at 37° C. for 30 minutes, to induce inflammation, 200 ng/mL of LPS was treated. After incubation at 37° C. for 6 hours, the cells in a medium-free state were treated with TRIzol™ (Invitrogen, #15596018) to lyse the cells. Through the given experimental method, RNA was obtained, cDNA was produced using a reverse transcriptase (Promega, #M1705). Afterward, a cytokine expression level was measured using SYBR Green (Enzynomics, RT530) and mouse primers of each inflammatory cytokine gene (TNFα, IL-6, and IL-1β).

FPR1 = biological target: T2, FPR1 (Homo sapiens, UniProt P21462); test: Change in calcium activity by peptide, FPR1 activation effect; type: cell-based; conditions: calcium activity (Fura-2), graded per Table 3, read-out: EC50 for [Ca^2+] FPR1
T2 sequence (P21462 1-350): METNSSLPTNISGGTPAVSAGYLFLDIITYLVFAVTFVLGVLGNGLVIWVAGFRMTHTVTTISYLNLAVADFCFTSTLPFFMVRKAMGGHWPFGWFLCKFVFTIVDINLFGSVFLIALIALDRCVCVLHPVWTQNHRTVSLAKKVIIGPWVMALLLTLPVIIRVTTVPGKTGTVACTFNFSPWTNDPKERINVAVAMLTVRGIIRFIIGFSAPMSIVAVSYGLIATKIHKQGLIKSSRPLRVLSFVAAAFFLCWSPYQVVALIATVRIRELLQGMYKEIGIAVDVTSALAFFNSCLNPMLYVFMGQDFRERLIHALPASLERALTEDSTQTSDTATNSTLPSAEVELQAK
In short: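 Cells plated at 3×10^5 per well the day before were loaded with Fura-2 for 1 h at 37 °C, then kept 30 min in the dark at room temperature. Peptide-evoked calcium changes were recorded on a FlexStation 3.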

SMILES	EC50 (FPR2) [nM]	Cytokine inhibition ability IL-1β (RAW264.7 cell line)	Cytokine inhibition ability IL-6 (RAW264.7 cell line)	Cytokine inhibition ability TNFα (RAW264.7 cell line)	EC50 (FPR1) [nM]
CSCC[C@H](NC(=O)[C@H](CCCNC(=N)N)NC(C)=O)C(=O)N[C@@H](CCCNC(=N)N)C(=O)N[C@@H](Cc1ccc(O)cc1)C(=O)N[C@@H](CCCCN)C(=O)N[C@H](C(=O)N[C@H](CCSC)C(N)=O)C(C)C [Peptide 6] (HELM PEPTIDE1{[ac].R.M.R.Y.K.V.[dM].[am]}$$$$V2.0)	< 10	A (81%-100%)	C (41%-60%)	A (81%-100%)	> 10000
CCCCCCCC(=O)N[C@@H](CCCNC(=N)N)C(=O)N[C@@H](CCSC)C(=O)N[C@@H](CCCNC(=N)N)C(=O)N[C@@H](Cc1ccc(O)cc1)C(=O)N[C@@H](Cc1c[nH]c2ccccc12)C(=O)N[C@@H](Cc1ccc(O)cc1)C(=O)N[C@H](CCSC)C(N)=O [Peptide 84] (HELM PEPTIDE1{[CCCCCCCC(=O)[*:2]].R.M.R.Y.W.Y.[dM].[am]}$$$$V2.0)	11 to 100	B (61%-80%)	E (0%-20%)	A (81%-100%)	> 10000
CCCC(=O)N[C@@H](CCSC)C(=O)N[C@@H](CCCCN)C(=O)N[C@@H](Cc1ccc(O)cc1)C(=O)N[C@@H](Cc1c[nH]c2ccccc12)C(=O)N1CCC[C@H]1C(=O)N[C@H](CCSC)C(N)=O [Peptide 115] (HELM PEPTIDE1{[CCCC(=O)[*:2]].M.K.Y.W.P.[dM].[am]}$$$$V2.0)	< 10	B (61%-80%)	B (61%-80%)	C (41%-60%)	1000 to 10000
CCCCCCCC(=O)N[C@@H](CCSC)C(=O)N[C@@H](CCCCN)C(=O)N[C@@H](Cc1ccc(O)cc1)C(=O)N[C@@H](CCCCN)C(=O)N[C@H](C(=O)N[C@H](CCSC)C(N)=O)C(C)C [Peptide 20] (HELM PEPTIDE1{[CCCCCCCC(=O)[*:2]].M.K.Y.K.V.[dM].[am]}$$$$V2.0)	11 to 100	B (61%-80%)	B (61%-80%)	B (61%-80%)	> 10000
CCCC(=O)N[C@@H](CCSC)C(=O)N[C@@H](CCCCN)C(=O)N[C@@H](Cc1ccc(O)cc1)C(=O)N[C@@H](CCCCN)C(=O)N[C@H](C(=O)N[C@H](CCSC)C(N)=O)C(C)C [Peptide 19] (HELM PEPTIDE1{[CCCC(=O)[*:2]].M.K.Y.K.V.[dM].[am]}$$$$V2.0)	< 10	A (81%-100%)	B (61%-80%)	B (61%-80%)	> 10000
CSCC[C@H](NC(C)=O)C(=O)N[C@@H](CCCCN)C(=O)N[C@@H](Cc1ccc(O)cc1)C(=O)N[C@@H](CCCCN)C(=O)N[C@H](C(=O)N[C@H](CCSC)C(N)=O)C(C)C [Peptide 18] (HELM PEPTIDE1{[ac].M.K.Y.K.V.[dM].[am]}$$$$V2.0)	< 10	A (81%-100%)	D (21%-40%)	A (81%-100%)	> 10000
CSCC[C@H](N)C(=O)N[C@@H](CCCCN)C(=O)N[C@@H](Cc1ccc(O)cc1)C(=O)N[C@@H](Cc1c[nH]c2ccccc12)C(=O)N1CCC[C@H]1C(=O)N[C@H](CCSC)C(N)=O [Peptide 113] (HELM PEPTIDE1{M.K.Y.W.P.[dM].[am]}$$$$V2.0)	< 10	D (21%-40%)	B (61%-80%)	D (21%-40%)	1000 to 10000
CCCCCCCC(=O)N[C@@H](CCCNC(=N)N)C(=O)N[C@@H](CCSC)C(=O)N[C@@H](CCCNC(=N)N)C(=O)N[C@@H](Cc1ccc(O)cc1)C(=O)N[C@@H](CCCCN)C(=O)N[C@@H](Cc1ccc(O)cc1)C(=O)N[C@H](CCSC)C(N)=O [Peptide 40] (HELM PEPTIDE1{[CCCCCCCC(=O)[*:2]].R.M.R.Y.K.Y.[dM].[am]}$$$$V2.0)	11 to 100	A (81%-100%)	C (41%-60%)	B (61%-80%)	> 10000
CSCC[C@H](NC(=O)[C@@H](N)CCCNC(=N)N)C(=O)N[C@@H](CCCNC(=N)N)C(=O)N[C@@H](Cc1ccc(O)cc1)C(=O)N[C@@H](Cc1c[nH]c2ccccc12)C(=O)N[C@@H](Cc1ccc(O)cc1)C(=O)N[C@H](CCSC)C(N)=O [Peptide 81] (HELM PEPTIDE1{R.M.R.Y.W.Y.[dM].[am]}$$$$V2.0)	< 10	A (81%-100%)	C (41%-60%)	A (81%-100%)	> 10000
CCCCCCCC(=O)N[C@@H](CCSC)C(=O)N[C@@H](CCCCN)C(=O)N[C@@H](Cc1ccc(O)cc1)C(=O)N[C@@H](CCCCN)C(=O)N1CCC[C@H]1C(=O)N[C@H](CCSC)C(N)=O [Peptide 73] (HELM PEPTIDE1{[CCCCCCCC(=O)[*:2]].M.K.Y.K.P.[dM].[am]}$$$$V2.0)	11 to 100	B (61%-80%)	D (21%-40%)	B (61%-80%)	> 10000
CSCC[C@H](N)C(=O)N[C@@H](CCCCN)C(=O)N[C@@H](Cc1ccc(O)cc1)C(=O)N[C@@H](CCCCN)C(=O)N1CCC[C@H]1C(=O)N[C@H](CCSC)C(N)=O [Peptide 70] (HELM PEPTIDE1{M.K.Y.K.P.[dM].[am]}$$$$V2.0)	< 10	A (81%-100%)	D (21%-40%)	C (41%-60%)	> 10000
CSCC[C@H](NC(C)=O)C(=O)N[C@@H](CCCCN)C(=O)N[C@@H](Cc1ccc(O)cc1)C(=O)N[C@@H](CCCCN)C(=O)N1CCC[C@H]1C(=O)N[C@H](CCSC)C(N)=O [Peptide 71] (HELM PEPTIDE1{[ac].M.K.Y.K.P.[dM].[am]}$$$$V2.0)	11 to 100	A (81%-100%)	C (41%-60%)	C (41%-60%)	> 10000
CSCC[C@H](NC(C)=O)C(=O)N[C@@H](CCCNC(=N)N)C(=O)N[C@@H](Cc1ccc(O)cc1)C(=O)N[C@@H](CCCCN)C(=O)N1CCC[C@H]1C(=O)N[C@H](CCSC)C(N)=O [Peptide 55] (HELM PEPTIDE1{[ac].M.R.Y.K.P.[dM].[am]}$$$$V2.0)	< 10	A (81%-100%)	B (61%-80%)	B (61%-80%)	> 10000
